Experimental data as given in patent US7521239B2, “Photochemical internalization for virus-mediated molecule delivery into the cyosol” (priority 2000, dated 2009).

What was measured:
[1] = system: HCT 116 adenocarcinoma cells; experiment: MTT cell survival after PCI-induced transduction with AdV-TK and ganciclovir; type: cell-based, human
Description: HCT 116 adenocarcinoma cells were infected with an adenovirus gene therapy vector encoding the HSV-tk gene (AdV-TK) and subjected to PCI-treatment. Conditions for infection were as described under “Experimental protocols” (MOI=5). 2 days after infection, different concentrations of ganciclovir (GCV) was added, and the cells were incubated further for 3 days before analysis of cell survival by the MTT method. This method is based on reduction of a water-soluble tetrazolium salt (MTT) to a purple, insoluble formazan product by mitochondrial dehydrogenases present in living, metabolically active cells. One ml medium containing […] is added to the cells, followed by 4 h incubation (37° C., 5% v/v CO2). The resulting formazan crystals are dissolved by adding 200 μl isopropanol (Sigma, Mo., USA) per well. The solution is transferred to a 96 wells plate which is read by a Multiskan EX microplate reader (Labsystems, Finland) with a 570 nm bandpass filter.

[2] = system: HCT 116 cells; experiment: Flow cytometry of β-galactosidase transduction in HCT 116 cells (AlPcS2a, red light); type: cell-based, human
Description: (§1) HCT 116 and WiDr human colon carcinoma cells were obtained from American Type Culture Collection (ATCC nos. CCL-247 and CCL-218, respectively). Cells were cultured in RPMI 1640 medium containing 10% fetal calf serum, 100 U/ml penicillin, […] and 2 mM glutamine (all Gibco BRL, Paisley, UK) at 37° C. in 5% CO2 atmosphere.
(§2) The recombinant adenovirus AdHCMV-lacZ encoding the E. coli lacZ gene controlled by the human cytomegalovirus promoter was obtained by homologous recombination using the pJM17 system in 293 cells (Addison et al., 1997, J. Gen. Virol. 78: 1653-61). Recombinant vectors were plaque purified, grown to high titer in 293 cells and purified by CsCl banding (Hitt et al., 1995, Methods Mol. Genet. 7:13-30). The virus-solution was diluted in PBS containing 0.68 mM CaCl2 and 0.5 mM MgCl2 to the MOIs employed in the different experiments. […]
(§3) The cells were trypsinised, centrifuged, resuspended in 25 ml medium and incubated for 5 min at 37° C. […] The samples were kept on ice for 30-60 min, filtered through a […] mesh nylon filter and analyzed in a FACS-Calibur flow cytometer (Becton Dickinson). […] Fluorescein-fluorescence was measured through a 510-530 nm filter after excitation with an argon laser (15 mW, 488 nm). […] The data were analyzed with the CELLQuest Software (Becton Dickinson).

[3] = system: human WiDr adenocarcinoma cells; experiment: X-gal staining of photochemically transduced WiDr cells; type: cell-based; details: AlPcS2a and light, no adenovirus
Description: 50 000 cells per well were seeded in 6-well plates (Costar,) and incubated overnight at 37° C. 1 ml medium containing […] AlPcS2a (Phorphyrin Products, Logan, Utah) was added, the cells were incubated for 18 h at 37° C., washed three times with medium and incubated for another 3 h at 37° C. The medium was removed and 200 μl of AdHCMV-lacZ was added. After incubation for 30 min at 37° C., 2 ml medium was added and the cells were incubated for 30 min before exposure to red light (Phillips TL 20 W/09, filtered through a Cinemoid 35 filter, with a light intensity reaching the cells of 13.5 W/m2). Before analysis of β-galactosidase activity the cells were incubated at 37° C. for two days.
For X-gal (5-bromo-4 chloro 3 indolyl-β-D-galactopyranoside) staining the medium was discarded, 1 ml of fixative solution (0,05% glutaraldehyde in PBS) was added and the cells were incubated at room temperature for 15 min. The fixative solution was discarded and the cells were washed three times in PBS at room temperature (second rinse was for 10 min, first and third rinses were performed quickly). 1 ml X-gal solution (5 mM K3Fe(CN)6, 5 mM K4Fe(CN)6, 1 mM MgCl2, 1 mg/ml X-gal) was added and the cells were incubated for 4 h to overnight at 37° C. and observed by microscopy (100× magnification) using an Axiovert S100 microscope (Zeiss) with an MC100 Spot camera (Zeiss).

[4] = system: WiDr cells; experiment: Flow cytometry of β-galactosidase transduction in WiDr cells (AlPcS2a, red light); type: cell-based, human; details: photochemical treatment alone (Ad−, S+)
Description: as §1, §2, §3

With `Nc1nc(O)c2ncn(COC(CO)CO)c2n1` [GCV, ganciclovir] the “GCV-mediated cell killing (cell survival, MTT)” value ([1]; control: photosensitizer + GCV, no AdV-TK) was “no such effect”.

For “aluminum phthalocyanine with 2 sulfonate groups on adjacent rings [AlPcS2a]”, the “GCV-mediated cell killing (cell survival, MTT)” value ([1]; control: only photosensitizer treatment) was “no such effect”, the “percentage of β-galactosidase positive cells” value ([2]; Ad−, S+, 8 min light) was 0.4% and the “mean fluorescence in non-infected cells” value ([2]; photochemical treatment (AlPcS2a + light), no adenovirus) was 12 RFU. For the same compound, the “β-galactosidase expressing cells (X-gal staining, microscopy)” value [3] was “No positive cells” and the “change in percentage of positive cells” value [4] was “did not significantly change”.
